Test results published in patent publication US11542492B2 (Celgene CAR LLC, priority 2009, dated 2023).
pIC50: −log10 of the molar value.

Legend:
Assay type in all cases: biochemical
p110β/p85α (PI3Kβ) = target: T1, p110β/p85α (PI3Kβ) (Homo sapiens, UniProt P42338); experiment: HTRF assay, p110β/p85α; settings: read-out: PI3Kβ HTRF IC50 Inhibition Designation
T1 construct: purchased Millipore 14-603
Method: (§1) The mechanics of the assay platform are best described by the vendor (Millipore, Billerica, Mass.) on their website at the following URL: http://www.millipore.com/coa/tech1/74jt4z.
(§2) Briefly, Stop solution (Stop A, #33-007 and Stop B, #33-009; 3:1 ratio) and Detection Mix (DMC, #33-015 with DMA, #33-011 and DMB, #33-013; 18:1:1 ratio) were prepared as recommended by the manufacturer ˜2 hrs prior to use. […] Lipid kinase reactions were started with the addition of 5 μL of ATP solution, mixed for 15 sec on a rotary plate shaker and incubated for 15-30 minutes at 25° C. Next, reactions were stopped with a 5 μL addition of Stop solution followed by a 5 μL volume of Detection Mix. […] At the conclusion of each assay, the HTRF ratio from fluorescence emission values for each well was calculated and % Inhibition determined from averaged controls wells. % Inhibition values for each compound re then plotted against inhibitor concentration to estimate IC50 from log [Inhibitor] vs Response, Variable Slope model in GraphPad Prism from GraphPad Software (San Diego, Calif.).

p120γ (PI3Kγ) = target: T2, p120γ (PI3Kγ) (Homo sapiens, UniProt P48736); experiment: HTRF assay, p120γ; settings: PI3Kγ; read-out: PI3Kγ HTRF IC50 Inhibition Designation
T2 construct: purchased BPS Bioscience 40625
Description: The protocol below describes an end-point, competition-binding HTRF assay used to measure inherent potency of test compounds against active p110α/p85α, p110β/p85α, p120γ enzymes. The mechanics of the assay platform are best described by the vendor (Millipore, Billerica, Mass.) on their website at the following URL: http://www.millipore.com/coa/tech1/74jt4z.
Briefly, Stop solution (Stop A, #33-007 and Stop B, #33-009; 3:1 ratio) and Detection Mix (DMC, #33-015 with DMA, #33-011 and DMB, #33-013; 18:1:1 ratio) were prepared as recommended by the manufacturer ˜2 hrs prior to use. Additionally, 1× reaction buffer (4× buffer stock #33-003), a 1.4× stock of enzyme from BPS Bioscience (San Diego, Ca) or Millipore (Billerica, Mass.) with di-C8-PIP2 lipid substrate (#33-005), and a 4×ATP solution (#A7699) Sigma/Aldrich (St. Louis, Mo.) were prepared in 1×reaction buffer. 15 μL of enzyme and lipid substrate mix were pre-incubated in a Corning (#3573) 384-well, black, non-treated microtiter plate (Corning, N.Y.) for 30 min at 25° C. with a 0.5 μL volume of 50% DMSO and serially diluted compounds prepared in 50%-75% DMSO. Lipid kinase reactions were started with the addition of 5 μL of ATP solution, mixed for 15 sec on a rotary plate shaker and incubated for 15-30 minutes at 25° C. Next, reactions were stopped with a 5 μL addition of Stop solution followed by a 5 μL volume of Detection Mix. Stopped reactions were equilibrated for 1 and 18 hrs at room temperature and then read in a Synergy4 plate reader from BioTek (Winooski, Vt.) at λex330-80/λem620-35 and λem665-7.5. At the conclusion of each assay, the HTRF ratio from fluorescence emission values for each well was calculated and % Inhibition determined from averaged controls wells. % Inhibition values for each compound re then plotted against inhibitor concentration to estimate IC50 from log [Inhibitor] vs Response, Variable Slope model in GraphPad Prism from GraphPad Software (San Diego, Calif.).
Reagents Used in Optimized Protocol: • [p120γ]=1-4 nM, [ATP]=50 μM, [di-C8-PIP2]=10 μM • (40625; BPS Bioscience)

p110α/p85α (PI3Kα) = target: T3, p110α/p85α (PI3Kα) (Homo sapiens, UniProt P42336); experiment: HTRF assay, p110α/p85α; settings: read-out: PI3Kα-HTRF-IC50 nM Inhibition Designation
T3 construct: purchased BPS Bioscience or Millipore 40620 (BPS Bioscience) or 14-602 (Millipore)
Method: HTRF Assay Protocol for Potency Assessment Against the Active Form of p110α/p85α:
as §1, §2

T3 sequence (P42336 whole entry): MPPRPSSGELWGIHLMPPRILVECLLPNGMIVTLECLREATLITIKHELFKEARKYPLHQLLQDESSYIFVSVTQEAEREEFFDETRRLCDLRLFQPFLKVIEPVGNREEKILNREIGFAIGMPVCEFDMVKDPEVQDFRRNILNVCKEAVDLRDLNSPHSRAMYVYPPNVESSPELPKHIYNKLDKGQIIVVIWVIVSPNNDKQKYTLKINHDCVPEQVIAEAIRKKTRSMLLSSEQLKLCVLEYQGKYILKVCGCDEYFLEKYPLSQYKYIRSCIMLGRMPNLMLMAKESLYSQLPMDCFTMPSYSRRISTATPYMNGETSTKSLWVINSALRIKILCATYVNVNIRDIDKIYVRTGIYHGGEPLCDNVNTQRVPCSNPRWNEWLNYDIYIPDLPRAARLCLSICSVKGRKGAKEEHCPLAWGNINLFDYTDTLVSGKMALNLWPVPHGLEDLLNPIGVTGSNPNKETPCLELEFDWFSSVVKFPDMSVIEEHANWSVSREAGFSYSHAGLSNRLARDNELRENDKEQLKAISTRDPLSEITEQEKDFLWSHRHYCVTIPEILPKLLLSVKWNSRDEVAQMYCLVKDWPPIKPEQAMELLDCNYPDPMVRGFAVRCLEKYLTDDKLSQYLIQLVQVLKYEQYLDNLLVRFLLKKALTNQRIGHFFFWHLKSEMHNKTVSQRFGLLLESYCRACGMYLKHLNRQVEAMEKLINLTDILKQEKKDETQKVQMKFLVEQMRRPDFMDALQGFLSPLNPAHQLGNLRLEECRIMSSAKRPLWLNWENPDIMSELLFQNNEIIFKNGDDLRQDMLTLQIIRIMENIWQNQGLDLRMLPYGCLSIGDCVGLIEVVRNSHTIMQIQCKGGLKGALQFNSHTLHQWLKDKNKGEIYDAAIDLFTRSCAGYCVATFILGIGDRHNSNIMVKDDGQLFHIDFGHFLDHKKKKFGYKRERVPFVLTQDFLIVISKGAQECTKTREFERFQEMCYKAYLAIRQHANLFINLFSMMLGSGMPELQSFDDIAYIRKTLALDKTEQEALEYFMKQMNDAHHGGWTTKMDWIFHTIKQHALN
T3 sequence (P27986 whole entry partner): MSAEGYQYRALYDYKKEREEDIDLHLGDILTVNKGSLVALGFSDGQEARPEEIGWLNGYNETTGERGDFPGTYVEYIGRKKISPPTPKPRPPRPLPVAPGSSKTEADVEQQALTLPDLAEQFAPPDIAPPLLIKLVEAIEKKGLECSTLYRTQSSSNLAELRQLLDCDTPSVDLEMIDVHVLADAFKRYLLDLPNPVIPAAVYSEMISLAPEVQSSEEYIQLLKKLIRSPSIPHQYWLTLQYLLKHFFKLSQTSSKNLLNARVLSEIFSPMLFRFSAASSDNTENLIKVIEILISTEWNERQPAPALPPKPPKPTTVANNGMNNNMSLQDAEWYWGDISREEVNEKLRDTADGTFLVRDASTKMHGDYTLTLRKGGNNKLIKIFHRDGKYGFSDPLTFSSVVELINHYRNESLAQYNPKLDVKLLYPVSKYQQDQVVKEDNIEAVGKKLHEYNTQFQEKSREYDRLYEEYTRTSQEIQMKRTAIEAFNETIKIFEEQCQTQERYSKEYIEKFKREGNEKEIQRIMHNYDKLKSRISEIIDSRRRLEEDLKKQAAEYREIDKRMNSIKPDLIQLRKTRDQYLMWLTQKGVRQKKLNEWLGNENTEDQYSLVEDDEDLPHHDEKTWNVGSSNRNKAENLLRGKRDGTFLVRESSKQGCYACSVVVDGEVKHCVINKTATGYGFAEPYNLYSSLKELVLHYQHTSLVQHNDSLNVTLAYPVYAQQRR
T1 sequence (P42338 whole entry): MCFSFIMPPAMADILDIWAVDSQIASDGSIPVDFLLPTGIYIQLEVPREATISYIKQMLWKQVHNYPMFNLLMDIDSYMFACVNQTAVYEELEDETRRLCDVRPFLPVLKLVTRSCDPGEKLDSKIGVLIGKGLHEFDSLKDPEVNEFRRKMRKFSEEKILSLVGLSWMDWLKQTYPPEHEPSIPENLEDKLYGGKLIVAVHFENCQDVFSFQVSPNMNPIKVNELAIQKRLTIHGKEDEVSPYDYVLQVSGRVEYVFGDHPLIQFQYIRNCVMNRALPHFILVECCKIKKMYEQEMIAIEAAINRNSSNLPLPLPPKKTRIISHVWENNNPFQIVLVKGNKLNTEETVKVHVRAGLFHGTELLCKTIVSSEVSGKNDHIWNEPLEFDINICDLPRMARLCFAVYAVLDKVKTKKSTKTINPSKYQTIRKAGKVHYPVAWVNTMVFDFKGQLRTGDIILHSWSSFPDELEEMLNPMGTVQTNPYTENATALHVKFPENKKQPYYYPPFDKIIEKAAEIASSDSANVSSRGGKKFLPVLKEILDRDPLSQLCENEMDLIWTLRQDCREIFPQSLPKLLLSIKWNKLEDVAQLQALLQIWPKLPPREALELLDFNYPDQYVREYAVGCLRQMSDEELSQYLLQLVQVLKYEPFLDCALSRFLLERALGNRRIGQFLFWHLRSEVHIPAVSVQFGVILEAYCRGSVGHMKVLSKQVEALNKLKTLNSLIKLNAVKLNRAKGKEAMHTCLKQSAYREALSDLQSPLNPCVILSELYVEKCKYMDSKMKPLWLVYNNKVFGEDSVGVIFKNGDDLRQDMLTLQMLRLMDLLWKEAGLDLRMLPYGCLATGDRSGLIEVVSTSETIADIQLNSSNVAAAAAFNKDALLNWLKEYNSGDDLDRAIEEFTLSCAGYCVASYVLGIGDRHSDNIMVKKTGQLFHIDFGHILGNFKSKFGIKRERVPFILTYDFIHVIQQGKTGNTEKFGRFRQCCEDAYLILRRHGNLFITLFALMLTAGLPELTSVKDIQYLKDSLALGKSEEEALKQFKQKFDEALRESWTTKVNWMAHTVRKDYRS
T1 sequence (P27986 whole entry partner): as the sequence (P27986 whole entry partner) above
T2 sequence (P48736 whole entry): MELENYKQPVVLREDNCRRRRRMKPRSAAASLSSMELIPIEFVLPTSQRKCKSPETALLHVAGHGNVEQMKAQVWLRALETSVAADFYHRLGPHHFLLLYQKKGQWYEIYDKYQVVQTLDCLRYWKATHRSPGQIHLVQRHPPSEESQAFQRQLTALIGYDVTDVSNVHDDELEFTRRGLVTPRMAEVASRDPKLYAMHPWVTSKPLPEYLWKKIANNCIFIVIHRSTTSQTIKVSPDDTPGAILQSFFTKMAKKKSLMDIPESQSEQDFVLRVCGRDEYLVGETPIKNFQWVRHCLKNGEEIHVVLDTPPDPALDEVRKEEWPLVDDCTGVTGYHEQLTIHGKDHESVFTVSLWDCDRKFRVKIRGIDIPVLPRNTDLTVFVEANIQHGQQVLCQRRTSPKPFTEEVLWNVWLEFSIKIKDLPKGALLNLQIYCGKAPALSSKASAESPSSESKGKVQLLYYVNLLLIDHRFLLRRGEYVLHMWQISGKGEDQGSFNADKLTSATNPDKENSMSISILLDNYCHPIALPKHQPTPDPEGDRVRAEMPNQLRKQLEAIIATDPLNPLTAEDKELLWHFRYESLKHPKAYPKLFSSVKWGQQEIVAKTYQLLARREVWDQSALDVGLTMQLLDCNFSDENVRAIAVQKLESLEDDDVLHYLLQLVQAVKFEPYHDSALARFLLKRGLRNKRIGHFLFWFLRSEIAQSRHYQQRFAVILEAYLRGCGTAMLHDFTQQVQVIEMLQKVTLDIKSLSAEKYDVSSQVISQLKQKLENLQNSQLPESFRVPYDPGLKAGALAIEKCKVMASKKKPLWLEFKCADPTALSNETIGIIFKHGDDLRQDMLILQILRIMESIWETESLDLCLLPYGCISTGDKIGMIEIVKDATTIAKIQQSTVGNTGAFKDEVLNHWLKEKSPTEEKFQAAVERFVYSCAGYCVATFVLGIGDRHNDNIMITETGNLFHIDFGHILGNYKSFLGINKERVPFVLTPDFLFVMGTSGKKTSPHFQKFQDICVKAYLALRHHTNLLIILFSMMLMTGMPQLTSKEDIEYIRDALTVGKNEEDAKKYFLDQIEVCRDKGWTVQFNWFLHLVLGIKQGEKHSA

SMILES: COc1ncc(-c2ccc3nccc(-c4ccc(C(=O)N5C[C@@H]6C[C@H]5C(=O)O6)cc4)c3c2)cc1NS(=O)(=O)c1ccc(F)cc1F [XXV-13, 2,4-difluoro-N-(2-methoxy-5-(4-(4-((1S,4S)-3-oxo-2-oxa-5-azabicyclo[2.2.1]heptane-5-carbonyl)phenyl)quinolin-6-yl)pyridin-3-yl)benzenesulfonamide]
- pIC50 (p110β/p85α (PI3Kβ)): > 8.00

SMILES: Nc1ncc(-c2nc(N3CCOCC3)c3sc(CN4CCN(C(=O)C5CSC(=O)C5)CC4)cc3n2)cn1 (stereo not shown) [XXII-31, 4-(4-((2-(2-aminopyrimidin-5-yl)-4-morpholinothieno[3,2-d]pyrimidin-6-yl)methyl)piperazine-1-carbonyl)dihydrothiophen-2(3H)-one]
- pIC50 (p110β/p85α (PI3Kβ)): 6.00 to 7.00
- pIC50 (p120γ (PI3Kγ)): 6.00 to 7.00

SMILES: CC(C)Oc1c(N2CCN(Cc3cc4nc(-c5cnc(N)nc5)nc(N5CCOCC5)c4s3)CC2)c(=O)c1=O [XXII-26, 3-(4-((2-(2-aminopyrimidin-5-yl)-4-morpholinothieno[3,2-d]pyrimidin-6-yl)methyl)piperazin-1-yl)-4-isopropoxycyclobut-3-ene-1,2-dione]
- pIC50 (p110β/p85α (PI3Kβ)): 6.00 to 7.00
- pIC50 (p120γ (PI3Kγ)): 6.00 to 7.00

SMILES: COC(=O)N1C(=O)CC[C@@H]1C(=O)N1CCN(Cc2cc3nc(-c4cnc(N)nc4)nc(N4CCOCC4)c3s2)CC1 [XXII-28]
- pIC50 (p110β/p85α (PI3Kβ)): 6.00 to 7.00
- pIC50 (p120γ (PI3Kγ)): 6.00 to 7.00

SMILES: COc1c(OCCCC(=O)N2C[C@H]3C[C@@H]2C(=O)O3)ccc2c1N=C(NC(=O)c1cccnc1)N1CCN=C21 [XXVII-13, N-(7-methoxy-8-(4-oxo-4-((1R,4R)-3-oxo-2-oxa-5-azabicyclo[2.2.1]heptan-5-yl)butoxy)-2,3-dihydroimidazo[1,2-c]quinazolin-5-yl)nicotinamide]
- pIC50 (p110β/p85α (PI3Kβ)): 6.00 to 7.00

SMILES: COC(=O)N1C(=O)CC[C@H]1C(=O)N1CCN(Cc2cc3nc(-c4cnc(N)nc4)nc(N4CCOCC4)c3s2)CC1 [XXII-29, (S)-methyl 2-(4-((2-(2-aminopyrimidin-5-yl)-4-morpholinothieno[3,2-d]pyrimidin-6-yl)methyl)piperazine-1-carbonyl)-5-oxopyrrolidine-1-carboxylate]
- pIC50 (p110β/p85α (PI3Kβ)): 6.00 to 7.00
- pIC50 (p120γ (PI3Kγ)): 6.00 to 7.00

SMILES: C=CS(=O)(=O)Oc1cccc(-c2nc(N3CCOCC3)c3sc(CN(C)S(=O)(=O)C=C)cc3n2)c1 [XXII-9]
- IC50 (p110α/p85α (PI3Kα)): 100 to 1000 nM
- pIC50 (p120γ (PI3Kγ)): 6.00 to 7.00

SMILES: CC1(C)Cc2nc(N3CCOc4ccc(NC(=O)[C@H]5CCC(=O)O5)cc43)sc2C(=O)N1 [XXIII-2]
- IC50 (p110α/p85α (PI3Kα)): 100 to 1000 nM
- pIC50 (p120γ (PI3Kγ)): 6.00 to 7.00

SMILES: COc1ccc(C(=O)N2C[C@@H]3C[C@H]2C(=O)O3)cc1-n1c(CSc2ncnc3[nH]cnc23)nc2cccc(Cl)c2c1=O [XXXVII-1, (1S,4S)-5-(3-(2-((9H-purin-6-ylthio)methyl)-5-chloro-4-oxoquinazolin-3(4H)-yl)-4-methoxybenzoyl)-2-oxa-5-azabicyclo[2.2.1]heptan-3-one]
- pIC50 (p110β/p85α (PI3Kβ)): 6.00 to 7.00

SMILES: CC1(C)Cc2nc(N3CCOc4ccc(C(=O)N5C[C@@H]6C[C@H]5C(=O)O6)cc43)sc2C(=O)N1 [XXIII-4, (1S,4S)-5-(4-(6,6-dimethyl-4-oxo-4,5,6,7-tetrahydrothiazolo[5,4-c]pyridin-2-yl)-3,4-dihydro-2H-benzo[b][1,4]oxazine-6-carbonyl)-2-oxa-5-azabicyclo[2.2.1]heptan-3-one]
- IC50 (p110α/p85α (PI3Kα)): 100 to 1000 nM
- pIC50 (p120γ (PI3Kγ)): 6.00 to 7.00

SMILES: C=CC(=O)Nc1ccc(-c2ccnc3ccc(-c4cnc(OC)c(NS(=O)(=O)c5ccc(F)cc5F)c4)cc23)cc1 [XXV-14, N-(4-(6-(5-(2,4-difluorophenylsulfonamido)-6-methoxypyridin-3-yl)quinolin-4-yl)phenyl) acrylamide]
- pIC50 (p110β/p85α (PI3Kβ)): > 8.00

SMILES: CN(Cc1cc2nc(-c3cccc(O)c3)nc(N3CCOCC3)c2s1)C(=O)CCC(=O)N1CCC1=O [XXII-24, N-((2-(3-hydroxyphenyl)-4-morpholinothieno[3,2-d]pyrimidin-6-yl)methyl)-N-methyl-4-oxo-4-(2-oxoazetidin-1-yl)butanamide]
- pIC50 (p110β/p85α (PI3Kβ)): 6.00 to 7.00

SMILES: O=C1CC[C@@H](C(=O)N2CCN(Cc3cc4nc(-c5cccc6[nH]ncc56)nc(N5CCOCC5)c4s3)CC2)O1 [XXII-23]
- pIC50 (p110β/p85α (PI3Kβ)): 5.00 to 6.00
- pIC50 (p120γ (PI3Kγ)): 6.00 to 7.00

SMILES: C=CS(=O)(=O)N1CCN(Cc2cc3nc(-c4cccc5[nH]ncc45)nc(N4CCOCC4)c3s2)CC1 [XXII-8, 4-(2-(1H-indazol-4-yl)-6-((4-(vinylsulfonyl)piperazin-1-yl)methyl)thieno[3,2-d]pyrimidin-4-yl)morpholine]
- IC50 (p110α/p85α (PI3Kα)): 100 to 1000 nM
- pIC50 (p120γ (PI3Kγ)): 6.00 to 7.00

SMILES: O=C1O[C@H]2C[C@@H]1N(Cc1cc(O)cc(-c3nc(N4CCOCC4)c4sccc4n3)c1)C2 [XXII-20]
- IC50 (p110α/p85α (PI3Kα)): 100 to 1000 nM
- pIC50 (p120γ (PI3Kγ)): 5.00 to 6.00

SMILES: COc1c(OCCCC(=O)N2C[C@@H]3C[C@H]2C(=O)O3)ccc2c1N=C(NC(=O)c1cccnc1)N1CCN=C21 [XXVII-14, N-(7-methoxy-8-(4-oxo-4-((1S,4S)-3-oxo-2-oxa-5-azabicyclo[2.2.1]heptan-5-yl)butoxy)-2,3-dihydroimidazo[1,2-c]quinazolin-5-yl)nicotinamide]
- pIC50 (p110β/p85α (PI3Kβ)): 6.00 to 7.00

SMILES: COc1ccc(NC(=O)N2C[C@@H]3C[C@H]2C(=O)O3)cc1-n1c(CSc2ncnc3[nH]cnc23)nc2cccc(Cl)c2c1=O [XXXVII-4, (1S,4S)-N-(3-(2-((9H-purin-6-ylthio)methyl)-5-chloro-4-oxoquinazolin-3(4H)-yl)-4-methoxyphenyl)-3-oxo-2-oxa-5-azabicyclo[2.2.1]heptane-5-carboxamide]
- pIC50 (p110β/p85α (PI3Kβ)): 6.00 to 7.00

SMILES: COc1ccc(NC(=O)[C@H]2CCC(=O)O2)cc1-n1c(CSc2ncnc3[nH]cnc23)nc2cccc(Cl)c2c1=O [XXXVII-2, (R)-N-(3-(2-((9H-purin-6-ylthio)methyl)-5-chloro-4-oxoquinazolin-3(4H)-yl)-4-methoxyphenyl)-5-oxotetrahydrofuran-2-carboxamide]
- pIC50 (p110β/p85α (PI3Kβ)): 6.00 to 7.00

SMILES: CC(C)Oc1c(N2CCN(Cc3cc4nc(-c5cccc6[nH]ncc56)nc(N5CCOCC5)c4s3)CC2)c(=O)c1=O [XXII-15]
- IC50 (p110α/p85α (PI3Kα)): 10 to 100 nM
- pIC50 (p120γ (PI3Kγ)): 6.00 to 7.00

SMILES: O=C1CC[C@@H](C(=O)N2CC=C(c3cc4nc(-c5cccc(O)c5)nc(N5CCOCC5)c4s3)CC2)O1 [XXII-1]
- IC50 (p110α/p85α (PI3Kα)): 10 to 100 nM
- pIC50 (p120γ (PI3Kγ)): 6.00 to 7.00

SMILES: CC1(C)Cc2nc(N3CCOc4ccc(-c5ccc(C(=O)N6C[C@H]7C[C@@H]6C(=O)O7)cc5)cc43)sc2C(=O)N1 [XXIII-7]
- IC50 (p110α/p85α (PI3Kα)): 1000 to 10000 nM
- pIC50 (p120γ (PI3Kγ)): 5.00 to 6.00

SMILES: COc1ccc(NC(=O)[C@@H]2CCC(=O)O2)cc1-n1c(CSc2ncnc3[nH]cnc23)nc2cccc(Cl)c2c1=O [XXXVII-3, (S)-N-(3-(2-((9H-purin-6-ylthio)methyl)-5-chloro-4-oxoquinazolin-3(4H)-yl)-4-methoxyphenyl)-5-oxotetrahydrofuran-2-carboxamide]
- pIC50 (p110β/p85α (PI3Kβ)): 6.00 to 7.00

SMILES: COc1ncc(-c2ccc3nccc(-c4ccc(C(=O)N5C[C@H]6C[C@@H]5C(=O)O6)cc4)c3c2)cc1NS(=O)(=O)c1ccc(F)cc1F [XXV-15, 2,4-difluoro-N-(2-methoxy-5-(4-(4-((1R,4R)-3-oxo-2-oxa-5-azabicyclo[2.2.1]heptane-5-carbonyl)phenyl)quinolin-6-yl)pyridin-3-yl)benzenesulfonamide]
- pIC50 (p110β/p85α (PI3Kβ)): > 8.00

SMILES: O=C1CC[C@H](C(=O)N2CCN(c3ccnc4ccc(/C=C5\SC(Nc6c(Cl)cccc6Cl)=NC5=O)cc34)CC2)O1 [XXIV-1]
- IC50 (p110α/p85α (PI3Kα)): 10 to 100 nM
- pIC50 (p120γ (PI3Kγ)): 6.00 to 7.00

SMILES: CC1(C)Cc2nc(N3CCOc4ccc(-c5ccc6occc(=O)c6c5)cc43)sc2C(=O)N1 [XXIII-6]
- IC50 (p110α/p85α (PI3Kα)): 100 to 1000 nM
- pIC50 (p120γ (PI3Kγ)): 6.00 to 7.00
